Assay results reported in ChEMBL document CHEMBL3525977, “Differential impact of P-glycoprotein (ABCB1) and breast cancer resistance protein (ABCG2) on axitinib brain accumulation and oral plasma pharmacokinetics” (Drug Metab Dispos, 2011).

Key:
[1] = Drug level in brain of Abcb1a/1b;Abcg2 (-/-) FVB mouse at 10 mg/kg, po after 4 hrs by liquid chromatography-tandem mass spectrometry; type: ADME, organism-based; design: dose 10 mg/kg, route oral; conditions: read-out: Drug uptake
[2] = Drug level in brain of Abcb1a/1b (-/-) FVB mouse at 10 mg/kg, po after 4 hrs by liquid chromatography-tandem mass spectrometry; type: ADME, organism-based; design: dose 10 mg/kg, route oral; conditions: read-out: Drug uptake
[3] = Drug level in brain of Abcg2 (-/-) FVB mouse at 10 mg/kg, po after 4 hrs by liquid chromatography-tandem mass spectrometry; type: ADME, organism-based; design: dose 10 mg/kg, route oral; conditions: read-out: Drug uptake
[4] = Drug level in brain of FVB mouse at 10 mg/kg, po after 4 hrs by liquid chromatography-tandem mass spectrometry; type: ADME, organism-based; design: dose 10 mg/kg, route oral; conditions: read-out: Drug uptake
[5] = AUC (0 to 4 hrs) in Abcb1a/1b;Abcg2 (-/-) FVB mouse plasma at 10 mg/kg, po by liquid chromatography-tandem mass spectrometry; type: ADME, organism-based; design: time < 4 hr, dose 10 mg/kg, route oral
[6] = AUC (0 to 4 hrs) in Abcb1a/1b (-/-) FVB mouse plasma at 10 mg/kg, po by liquid chromatography-tandem mass spectrometry; type: ADME, organism-based; design: time < 4 hr, dose 10 mg/kg, route oral
[7] = AUC (0 to 4 hrs) in FVB mouse plasma at 10 mg/kg, po by liquid chromatography-tandem mass spectrometry; type: ADME, organism-based; design: time < 4 hr, dose 10 mg/kg, route oral
[8] = AUC (0 to 4 hrs) in Abcg2 (-/-) FVB mouse plasma at 10 mg/kg, po by liquid chromatography-tandem mass spectrometry; type: ADME, organism-based; design: time < 4 hr, dose 10 mg/kg, route oral
Brain [9] = test: Drug level in brain of Abcg2 (-/-) FVB mouse at 10 mg/kg, po after 1 hr by liquid chromatography-tandem mass spectrometry relative to wild type FVB mouse; type: ADME, organism-based; design: dose 10 mg/kg, route oral; conditions: in vivo
Brain [10] = test: Drug level in brain of Abcb1a/1b (-/-) FVB mouse at 10 mg/kg, po after 1 hr by liquid chromatography-tandem mass spectrometry relative to wild type FVB mouse; type: ADME, organism-based; design: dose 10 mg/kg, route oral; conditions: in vivo
Brain [11] = test: Drug level in brain of Abcb1a/1b;Abcg2 (-/-) FVB mouse at 10 mg/kg, po after 1 hr by liquid chromatography-tandem mass spectrometry relative to wild type FVB mouse; type: ADME, organism-based; design: dose 10 mg/kg, route oral; conditions: in vivo
Brain [12] = test: Drug level in brain of Abcg2 (-/-) FVB mouse at 10 mg/kg, po after 4 hrs by liquid chromatography-tandem mass spectrometry relative to wild type FVB mouse; type: ADME, organism-based; design: dose 10 mg/kg, route oral; conditions: in vivo
Brain [13] = test: Drug level in brain of Abcb1a/1b (-/-) FVB mouse at 10 mg/kg, po after 4 hrs by liquid chromatography-tandem mass spectrometry relative to wild type FVB mouse; type: ADME, organism-based; design: dose 10 mg/kg, route oral; conditions: in vivo
Brain [14] = test: Drug level in brain of Abcb1a/1b;Abcg2 (-/-) FVB mouse at 10 mg/kg, po after 4 hrs by liquid chromatography-tandem mass spectrometry relative to wild type FVB mouse; type: ADME, organism-based; design: dose 10 mg/kg, route oral; conditions: in vivo
[15] = Drug transport in MDCK2 cells at 1 uM after 1 to 4 hrs in presence of 5 uM ABCB1 inhibitor zosuquidar; type: ADME, cell-based, Canis lupus familiaris; conditions: dog, mdck-ii
[16] = Efflux ratio in wild type MDCK2 cells at 1 uM after 1 to 4 hrs; type: ADME, cell-based, Canis lupus familiaris, MDCK-II; conditions: dog, MDCK
[17] = Drug transport in MDCK2 cells at 1 uM after 1 to 4 hrs in presence of 5 uM ABCB1/ABCG2 inhibitor elacridar; type: ADME, cell-based, Canis lupus familiaris; conditions: dog, mdck-ii
ABCB1 = ABCB1 (Homo sapiens, UniProt P08183); test: Drug transport in MDCK2 cells expressing human ABCB1 assessed as transporter-mediated efflux ratio at 1 uM after 1 to 4 hrs; type: ADME, cell-based; conditions: MDCK-MDR1
ABCG2 = target: T1, ABCG2 (Homo sapiens, UniProt Q9UNQ0); test: Drug transport in MDCK2 cells expressing human ABCG2 assessed as transporter-mediated efflux ratio at 1 uM after 1 to 4 hrs; type: ADME, cell-based
T1 sequence (Q9UNQ0 whole entry): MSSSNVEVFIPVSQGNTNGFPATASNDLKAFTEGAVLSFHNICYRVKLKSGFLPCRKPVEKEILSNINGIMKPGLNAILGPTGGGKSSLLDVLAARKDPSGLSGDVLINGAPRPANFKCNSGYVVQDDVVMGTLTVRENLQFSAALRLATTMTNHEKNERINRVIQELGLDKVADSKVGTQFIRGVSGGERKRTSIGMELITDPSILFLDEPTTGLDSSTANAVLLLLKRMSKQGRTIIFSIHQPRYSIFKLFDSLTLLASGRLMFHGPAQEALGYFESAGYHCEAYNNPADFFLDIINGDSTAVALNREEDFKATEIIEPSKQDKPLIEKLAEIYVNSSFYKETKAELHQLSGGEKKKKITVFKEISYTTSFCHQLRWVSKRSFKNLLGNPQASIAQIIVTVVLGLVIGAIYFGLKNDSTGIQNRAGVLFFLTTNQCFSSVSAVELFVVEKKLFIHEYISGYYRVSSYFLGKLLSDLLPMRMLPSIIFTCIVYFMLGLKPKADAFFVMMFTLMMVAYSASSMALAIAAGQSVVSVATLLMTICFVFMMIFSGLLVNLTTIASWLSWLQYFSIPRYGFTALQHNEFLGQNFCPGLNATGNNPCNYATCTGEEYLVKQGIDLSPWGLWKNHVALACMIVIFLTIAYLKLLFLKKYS

[18] = target: T2, Broad substrate specificity ATP-binding cassette transporter ABCG2 (Mus musculus, UniProt Q7TMS5); test: Drug transport in MDCK2 cells expressing mouse ABCG2 assessed as transporter-mediated efflux ratio at 1 uM after 1 to 4 hrs; type: ADME, cell-based; conditions: mdck2, 1 µM
T2 sequence (Q7TMS5 whole entry): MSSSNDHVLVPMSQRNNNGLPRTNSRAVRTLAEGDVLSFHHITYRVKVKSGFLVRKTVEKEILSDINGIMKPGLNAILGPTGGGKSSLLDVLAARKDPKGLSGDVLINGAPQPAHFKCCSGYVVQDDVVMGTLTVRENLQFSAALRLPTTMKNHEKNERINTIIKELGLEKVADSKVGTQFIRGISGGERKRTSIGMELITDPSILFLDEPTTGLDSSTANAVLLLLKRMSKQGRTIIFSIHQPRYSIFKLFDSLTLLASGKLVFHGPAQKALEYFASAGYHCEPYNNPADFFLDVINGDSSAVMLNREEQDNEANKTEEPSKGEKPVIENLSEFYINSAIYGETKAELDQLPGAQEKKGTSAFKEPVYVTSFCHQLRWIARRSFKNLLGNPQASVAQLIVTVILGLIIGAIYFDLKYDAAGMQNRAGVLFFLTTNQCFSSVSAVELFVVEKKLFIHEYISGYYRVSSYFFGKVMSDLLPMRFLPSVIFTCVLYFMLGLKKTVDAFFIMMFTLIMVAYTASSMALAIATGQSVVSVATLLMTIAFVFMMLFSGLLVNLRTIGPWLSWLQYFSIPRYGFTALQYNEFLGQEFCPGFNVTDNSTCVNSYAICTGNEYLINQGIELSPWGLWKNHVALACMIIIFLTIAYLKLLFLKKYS

[19] = AUC (0 to 1 hr) in FVB mouse plasma at 10 mg/kg, po by liquid chromatography-tandem mass spectrometry; type: ADME, organism-based; design: time < 1 hr, dose 10 mg/kg, route oral
[20] = AUC (0 to 1 hr) in Abcg2 (-/-) FVB mouse plasma at 10 mg/kg, po by liquid chromatography-tandem mass spectrometry; type: ADME, organism-based; design: time < 1 hr, dose 10 mg/kg, route oral
[21] = AUC (0 to 1 hr) in Abcb1a/1b (-/-) FVB mouse plasma at 10 mg/kg, po by liquid chromatography-tandem mass spectrometry; type: ADME, organism-based; design: time < 1 hr, dose 10 mg/kg, route oral
[22] = AUC (0 to 1 hr) in Abcb1a/1b;Abcg2 (-/-) FVB mouse plasma at 10 mg/kg, po by liquid chromatography-tandem mass spectrometry; type: ADME, organism-based; design: time < 1 hr, dose 10 mg/kg, route oral
[23] = Drug level in brain of Abcg2 (-/-) FVB mouse at 10 mg/kg, po after 1 hr by liquid chromatography-tandem mass spectrometry; type: ADME, organism-based; design: dose 10 mg/kg, route oral; conditions: read-out: Drug uptake
[24] = Drug level in brain of Abcb1a/1b (-/-) FVB mouse at 10 mg/kg, po after 1 hr by liquid chromatography-tandem mass spectrometry; type: ADME, organism-based; design: dose 10 mg/kg, route oral; conditions: read-out: Drug uptake
[25] = Drug level in brain of Abcb1a/1b;Abcg2 (-/-) FVB mouse at 10 mg/kg, po after 1 hr by liquid chromatography-tandem mass spectrometry; type: ADME, organism-based; design: dose 10 mg/kg, route oral; conditions: read-out: Drug uptake
[26] = Drug level in brain of FVB mouse at 10 mg/kg, po after 1 hr by liquid chromatography-tandem mass spectrometry; type: ADME, organism-based; design: dose 10 mg/kg, route oral; conditions: read-out: Drug uptake

ABCB1, sequence (P08183 whole entry): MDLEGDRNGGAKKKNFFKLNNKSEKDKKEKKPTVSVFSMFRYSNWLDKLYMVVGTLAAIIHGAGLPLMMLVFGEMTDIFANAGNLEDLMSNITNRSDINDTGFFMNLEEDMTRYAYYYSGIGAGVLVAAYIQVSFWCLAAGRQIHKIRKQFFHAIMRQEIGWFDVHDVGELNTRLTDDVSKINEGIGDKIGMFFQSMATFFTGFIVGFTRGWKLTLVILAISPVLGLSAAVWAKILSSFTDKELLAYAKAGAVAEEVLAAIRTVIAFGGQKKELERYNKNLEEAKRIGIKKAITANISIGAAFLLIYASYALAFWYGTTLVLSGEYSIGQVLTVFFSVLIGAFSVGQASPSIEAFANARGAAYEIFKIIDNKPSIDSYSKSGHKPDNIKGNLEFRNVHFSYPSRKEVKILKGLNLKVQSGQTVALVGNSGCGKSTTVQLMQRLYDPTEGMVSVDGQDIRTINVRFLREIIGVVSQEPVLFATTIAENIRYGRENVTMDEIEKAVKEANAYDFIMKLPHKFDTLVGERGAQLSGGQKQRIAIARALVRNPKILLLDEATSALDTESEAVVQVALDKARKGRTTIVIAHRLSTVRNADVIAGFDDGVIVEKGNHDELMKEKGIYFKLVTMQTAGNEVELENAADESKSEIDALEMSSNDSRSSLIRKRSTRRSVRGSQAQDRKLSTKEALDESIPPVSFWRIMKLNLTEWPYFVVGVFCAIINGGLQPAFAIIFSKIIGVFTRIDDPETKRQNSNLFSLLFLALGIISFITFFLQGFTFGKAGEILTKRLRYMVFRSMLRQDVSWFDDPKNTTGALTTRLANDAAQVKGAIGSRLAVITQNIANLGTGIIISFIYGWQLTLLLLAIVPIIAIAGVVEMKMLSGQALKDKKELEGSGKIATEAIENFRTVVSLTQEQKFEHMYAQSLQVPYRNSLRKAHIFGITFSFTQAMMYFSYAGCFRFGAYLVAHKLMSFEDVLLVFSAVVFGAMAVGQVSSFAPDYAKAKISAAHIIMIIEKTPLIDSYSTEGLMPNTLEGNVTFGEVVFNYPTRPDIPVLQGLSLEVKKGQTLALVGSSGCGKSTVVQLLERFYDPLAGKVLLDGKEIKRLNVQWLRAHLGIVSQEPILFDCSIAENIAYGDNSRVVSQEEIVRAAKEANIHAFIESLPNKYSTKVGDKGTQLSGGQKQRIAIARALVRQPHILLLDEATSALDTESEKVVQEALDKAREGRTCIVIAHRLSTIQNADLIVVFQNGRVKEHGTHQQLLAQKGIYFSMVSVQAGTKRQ

concentration at 4 h [1]: 250 ng/g
concentration at 4 h [2]: 47 ng/g
concentration at 4 h [3]: 7 ng/g
concentration at 4 h [4]: 6 ng/g
AUC(0-t) at 4 h [5]: 4.95 µg·h/mL
AUC(0-t) at 4 h [6]: 3.95 µg·h/mL
AUC(0-t) at 4 h [7]: 2.68 µg·h/mL
AUC(0-t) at 4 h [8]: 4.67 µg·h/mL
Ratio (Brain [9]): 0.8
Ratio (Brain [10]): 6.3
Ratio (Brain [11]): 19.6
Ratio (Brain [12]): 1.1
Ratio (Brain [13]): 7.9
Ratio (Brain [14]): 42.4
Drug transport [15]: Not Active
efflux ratio at 1 µM [16]: 1.4
Drug transport [17]: Not Active
efflux ratio at 1 µM (ABCB1): 5.3
efflux ratio at 1 µM (ABCG2): 1.3
Ratio [18]: 3.4
AUC(0-t) at 1 h [19]: 1.09 µg·h/mL
AUC(0-t) at 1 h [20]: 1.76 µg·h/mL
AUC(0-t) at 1 h [21]: 0.95 µg·h/mL
AUC(0-t) at 1 h [22]: 1.4 µg·h/mL
concentration at 1 h [23]: 80 ng/g
concentration at 1 h [24]: 640 ng/g
concentration at 1 h [25]: 1980 ng/g
concentration at 1 h [26]: 100 ng/g
Compound: CNC(=O)c1ccccc1Sc1ccc2c(/C=C/c3ccccn3)n[nH]c2c1 [AXITINIB]
